Reference: PMC12040169 (PLOS Biology, 2025)

Experiment: in vitro
Conditions: human, hela cells, % viability
O=C(Oc1ccc(-c2cnc3ccccc3n2)cc1)c1ccc(S(=O)(=O)N2CCCCC2)cc1 [CBK267812] showed a viability at 28.5 h, 10 µM of 93.7%. With O=C(O)c1[nH]c2ccccc2c1C(c1cc(Cl)cc([N+](=O)[O-])c1O)c1c(C(=O)O)[nH]c2ccccc12 [CBK267814] the viability at 28.5 h, 10 µM was 95.6%. In the case of CCN1CCCC1CNS(=O)(=O)c1cc(C(N)=O)ccc1OC (centres unmarked) [CBK267815], the viability at 28.5 h, 10 µM is reported as 115%. Compound Cc1ccc(C)c(OCCNCCN(C)C)c1Cl [CBK267816C] has a viability at 28.5 h, 10 µM of 88.5%. CN(Cc1ccccc1)C(=O)c1ccccc1NC(=O)c1ccccc1 [CBK267818] showed a viability at 28.5 h, 10 µM of 107%. In the case of Cc1ccc(SCCCn2cnc3ccccc32)cc1 [CBK267821G], the viability at 28.5 h, 10 µM is reported as 93.7%. Compound CN1CCN(C(c2ccccc2)C(O)C(=O)c2c[nH]c3ccccc23)CC1 (centres unmarked) [CBK267823] has a viability at 28.5 h, 10 µM of 103%. In the case of CC1(C)[N+]([O-])=CC(c2ccc(-c3ccccc3)cc2)=[N+]([O-])C1(C)C [CBK267825], the viability at 28.5 h, 10 µM is reported as 98.7%. In the case of O=C(CSCc1ccccc1Cl)NNC(=O)c1cccnc1 [CBK267826], the viability at 28.5 h, 10 µM is reported as 113%. COc1cccc(NC(=O)c2ccc(N(C)Cc3ccccc3)c([N+](=O)[O-])c2)c1 [CBK267827] showed a viability at 28.5 h, 10 µM of 95.1%. O=C(CNC(=O)C1CCCCC1)NNC(=O)c1ccccc1Br [CBK267828] showed a viability at 28.5 h, 10 µM of 102%. Work on O=C(Nc1ccc(/C=C/c2ccccc2)cc1)c1ccc(COc2ccccc2)o1 [CBK267829] yielded a viability at 28.5 h, 10 µM of 91.3%. Compound Cc1nnc(SCc2nc3ccccc3c(=O)[nH]2)[nH]1 [CBK267830] has a viability at 28.5 h, 10 µM of 90%. With Cn1cccc1CNCCc1ccc(S(N)(=O)=O)cc1 [CBK267831C] the viability at 28.5 h, 10 µM was 98.7%. With COc1ccc(CC(=O)Nc2ccc(S(=O)(=O)NC(C)C)cc2)cc1 [CBK267833] the viability at 28.5 h, 10 µM was 93.2%. Compound Cc1ccc(NS(=O)(=O)c2ccc(OCC(=O)N3CCN(C)CC3)c(C)c2)cc1 [CBK267834] has a viability at 28.5 h, 10 µM of 110%. In the case of COc1ccc(Cl)cc1NC(=O)CN(c1cccc(C(C)=O)c1)S(C)(=O)=O [CBK267835], the viability at 28.5 h, 10 µM is reported as 108%. In the case of Cc1ccccc1NC(=O)NCCCN1CCN(C)CC1 [CBK267837], the viability at 28.5 h, 10 µM is reported as 85.2%. For COc1cc(/C=C(/C#N)c2nc3ccccc3[nH]2)ccc1OCc1ccc(C(=O)O)o1 [CBK267839], the viability at 28.5 h, 10 µM was 90.7%. With COc1ccc(C(=O)NC(=N)NCCc2c[nH]c3ccccc23)cc1 [CBK267840] the viability at 28.5 h, 10 µM was 111%. For O=C(CSCc1ccc(Br)cc1)Nc1ccc(S(=O)(=O)N2CCOCC2)cc1 [CBK267845], the viability at 28.5 h, 10 µM was 97.1%. With COc1ccc(OC)c(NC(=O)CNC(=O)c2ccccc2F)c1 [CBK267846] the viability at 28.5 h, 10 µM was 91.5%. In the case of COc1ccc(C)cc1S(=O)(=O)N(CC(=O)O)Cc1ccccc1 [CBK267847], the viability at 28.5 h, 10 µM is reported as 108%. O=C(O)c1cc(-c2ccc(F)cc2)n[nH]1 [CBK267848] gave a viability at 28.5 h, 10 µM of 96.1%. With CC(=O)Nc1ccc(C(=O)CSc2nnc(C)o2)cc1 [CBK267851] the viability at 28.5 h, 10 µM was 107%. O=C(OCc1cccc(C(=O)c2ccccc2)c1)c1ccc(-c2nnc(-c3ccccc3)o2)cc1 [CBK267852] gave a viability at 28.5 h, 10 µM of 104%. For Nc1nnc(SCC(=O)NCc2ccc3c(c2)OCO3)s1 [CBK267853], the viability at 28.5 h, 10 µM was 101%. CS(=O)(=O)N(CC(=O)Nc1ccccc1C(F)(F)F)Cc1ccc(Cl)cc1 [CBK267854] showed a viability at 28.5 h, 10 µM of 108%. Work on COc1c(C)cc(Br)cc1C(=O)NC(=S)Nc1ccccc1N1CCN(C)CC1 [CBK267855C] yielded a viability at 28.5 h, 10 µM of 97.1%. Work on Fc1ccc(OCc2ccc(-c3nnn[nH]3)cc2)cc1 [CBK267859] yielded a viability at 28.5 h, 10 µM of 106%. In the case of COC(=O)c1ccccc1NC(=O)CNC(=O)c1ccc(Cl)cc1Cl [CBK267860], the viability at 28.5 h, 10 µM is reported as 105%. For N#Cc1ccc(N2CCN(CCCNC(=O)Nc3ccccc3)CC2)cc1 [CBK267861], the viability at 28.5 h, 10 µM was 95%. Work on O=[N+]([O-])c1cccc(S(=O)(=O)NCCSc2ccccc2)c1 [CBK267862] yielded a viability at 28.5 h, 10 µM of 94.1%. Work on N#CCCn1cc(C(=O)Nc2ccc(C(=O)O)cc2)c(-c2cc3ccccc3o2)n1 [CBK267866] yielded a viability at 28.5 h, 10 µM of 96.6%. In the case of Cn1c(SCC(=O)Nc2ccnc3ccccc23)nnc1-c1ccncc1 [CBK267867], the viability at 28.5 h, 10 µM is reported as 105%.
